In patent US7601687B2, “Mechanism for identifying drugs for the treatment of type II diabetes” (BioCrine AB, priority 2006, dated 2009):

Legend:
rat βGK promoter = assay: On-line monitoring of βGK promoter-driven GFP expression (prβGK.GFP) in transfected HIT-T15 cells, islet cells and islets; type: cell-based, hamster (HIT-T15), rat (islet cells); settings: for effect of inhibitor on insulin-stimulated βGK transcription / promoter activity: 5 mU/ml insulin 5 min, 150 nM BIM, 20 μM PD98059, 10 μM PD169316, 100 μM HNMPA-(AM)3, 400 nM AC, FIG. 5; for effect of inhibitor on insulin-stimulated βGK transcription / promoter activity / effect of inhibitor on insulin-stimulated βGK promoter activity (GFP) in the same co-transfected cell: 25 μM LY294002, 10 nM rapamycin; for effect of inhibitor on insulin-stimulated βGK promoter activity (GFP) in the same co-transfected cell: 5 mU/ml insulin, 400 nM AC, 100 μM HNMPA-(AM)3; for βGK promoter-driven GFP expression upon secretagogue stimulation: 50 mM KCl or 1 μM glibenclamide for 5 min at substimulatory glucose
Source text: Construction of prIns1.GFP has been described earlier (Leibiger et al., 1998a). Vector prIns1.DsRed was generated by exchanging the EGFP-expression cassette versus the DsRed-expression cassette obtained from pDsRed1-1 (Clontech). Plasmid prβGK.GFP (i.e. prβGK-278.GFP) was generated by exchanging the CAT-SV40pA-expression cassette of prβGK-278.CAT (Leibiger et al., 1994a) versus the EGFP-bGHpA-expression cassette obtained from pRcCMVI.GFP (Moede et al., 1999). […] All vector constructions were verified by DNA sequence analysis. […] Expression constructs pCMV5.PKBα, pCMV5.PKBαΔ308/437, pCMV5.PDK1 and pCMV5.PDK1-antisense were kindly provided by Drs. P. Cohen and D. R. Alessi (MRC Phosphorylation Unit, University of Dundee, UK).
HIT cells were reported to show glucose responsiveness at subphysiological concentrations between 0.1 and 2 mM (Sharma et al., 1995). HIT cells were grown in RPMI 1640 medium supplemented with 100 units/ml penicillin, 100 μg/ml streptomycin, 2 mM glutamine and 10% fetal calf serum at 5% CO2 and 37° C. Pancreatic islets were isolated from normally fed male Wistar rats and from mice by collagenase digestion. Isolated islets were incubated overnight at 5% CO2 and 37° C. in RPMI 1640 medium, supplemented as described above. Transfection of HIT-T15 and islet cells was performed overnight by the lipofectamine technique in RPMI 1640 medium, without serum and antibiotics. For on-line monitoring, cells were grown and transfected on 24-mm glass coverslips. Following transfection, HIT cells were cultured for 12-18 h in RPMI 1640 medium containing 0.1 mM glucose, 10% fetal calf serum and supplemented as above. Before stimulation, islets and islet cells were incubated for 2 h in RPMI 1640 medium, supplemented as above but containing 3 mM glucose. All expression constructs were prepared using the Qiagen Plasmid Maxi Kit (Qiagen), except those used to produce the adenoviruses which where purified by ultracentrifugation via a CsCI-gradient (as described in Sambrook et al, 1989).
Islets were transduced with Ad.rβGK.GFP or Ad.CMV.GFP by incubating 50 islets with 1 ml virus-containing medium for 90 min at 37° C. and 5% CO2. Following transduction, islets were washed 3 times with PBS and cultured further in RPMI 1640 medium. Islets were stimulated 40-72 h after transduction, as described below and analyzed by laser-scanning confocal microscopy.
(§1) All experiments were performed in RPMI 1640 medium, supplemented as above. Protein kinase inhibitors, antibodies or nifedipine were added to the culture medium 30 min prior to stimulation and were kept in the medium throughout stimulation. After stimulation islets, islet cells and HIT cells were cultured further at substimulatory glucose concentrations (0.1 mM for HIT cells and 3 mM for islets and islet cells). For RNA-analysis, islets and cells were harvested 60 min after start of stimulation, if not indicated otherwise. For analysis of protein kinase activities or tyrosine phosphorylation, cells were harvested immediately following stimulation.
(§2) Detection of fluorescence by digital imaging fluorescence microscopy was performed as described previously (Leibiger et al., 1998a; Leibiger et al., 1998b). Briefly, transfected cells were grown on 24-mm glass coverslips. After stimulation the coverslips were placed into a perifusion chamber which was mounted on an inverted microscope (Zeiss Axiovert 135TV). Temperature was kept at 37° C. and the cells were perfused with RPMI 1640 medium. The objective lens used was a Zeiss-Fluar ×40/1.30 oil Imm Korr. Fluorescence imaging was performed with a cooled charged-coupled device camera (CH250 with KAF 1400, Photometrics, Tucson, Ariz.) connected to an imaging system (Inovision) with fluorescence excitation from a SPEX fluorolog-2 CM1T11I spectrofluorometer (Spex Industries).

βGK mRNA = βGK mRNA steady-state levels (comparative RT-PCR) in cultured pancreatic islets / insulin-producing cells; type: cell-based, rat; settings: 50 mM KCl or 1 μM glibenclamide for 5 min at substimulatory glucose
Protocol: (§3) Insulin-producing HIT-T15 cells were obtained from ATCC. HIT cells were reported to show glucose responsiveness at subphysiological concentrations between 0.1 and 2 mM (Sharma et al., 1995). HIT cells were grown in RPMI 1640 medium supplemented with 100 units/ml penicillin, 100 μg/ml streptomycin, 2 mM glutamine and 10% fetal calf serum at 5% CO2 and 37° C. Pancreatic islets were isolated from normally fed male Wistar rats and from mice by collagenase digestion. Isolated islets were incubated overnight at 5% CO2 and 37° C. in RPMI 1640 medium, supplemented as described above. Transfection of HIT-T15 and islet cells was performed overnight by the lipofectamine technique in RPMI 1640 medium, without serum and antibiotics. For on-line monitoring, cells were grown and transfected on 24-mm glass coverslips. Following transfection, HIT cells were cultured for 12-18 h in RPMI 1640 medium containing 0.1 mM glucose, 10% fetal calf serum and supplemented as above. Before stimulation, islets and islet cells were incubated for 2 h in RPMI 1640 medium, supplemented as above but containing 3 mM glucose. All expression constructs were prepared using the Qiagen Plasmid Maxi Kit (Qiagen), except those used to produce the adenoviruses which where purified by ultracentrifugation via a CsCI-gradient (as described in Sambrook et al, 1989).
as §1
RNA Analysis Levels of βGK mRNA were analyzed by RNase-protection assays and comparative RT-PCR. […] Quantification of the protected complexes was performed by phosphorimaging. […] Levels of μGK mRNA were analyzed by RT-PCR using primers 5′-[…]-3′(SEQ ID NO: 1) and 5′-[…]-3′(SEQ ID NO: 2) for characterizing μGK mRNA in HIT cells and primers 5′-[…]-3′(SEQ ID NO: 3) and 5′-[…]-3′(SEQ ID NO: 4) for μGK mRNA in rat and mouse pancreatic islets and islet cells. Levels of μ-actin mRNA were analyzed by RT-PCR using primers 5′-[…]-3′(SEQ ID NO: 5) and 5′-[…]-3′(SEQ ID NO: 6). […] PCR products were separated on a 6% polyacrylamide sequencing gel and analyzed by phosphorimaging. […]

[1] = system: rat insulin-I gene promoter; assay: On-line monitoring of insulin promoter-driven DsRed/GFP expression (prIns1.DsRed) in transfected HIT-T15 cells and islet cells; type: cell-based, hamster (HIT-T15), rat (islet cells)
Source text: Construction of prIns1.GFP has been described earlier (Leibiger et al., 1998a). Vector prIns1.DsRed was generated by exchanging the EGFP-expression cassette versus the DsRed-expression cassette obtained from pDsRed1-1 (Clontech). Plasmid prβGK.GFP (i.e. prβGK-278.GFP) was generated by exchanging the CAT-SV40pA-expression cassette of prβGK-278.CAT (Leibiger et al., 1994a) versus the EGFP-bGHpA-expression cassette obtained from pRcCMVI.GFP (Moede et al., 1999). […] All vector constructions were verified by DNA sequence analysis. Constructs for expression of the human Insulin Receptor A and B types, pCMVHIR(A) and pCMVHIR(B) and the control plasmid pCMVstop were kindly provided by Dr. A. Ullrich (Max-Planck-Institute for Biochemistry, Martinsried, Germany). Expression constructs pCMV5.PKBα, pCMV5.PKBαΔ308/437, pCMV5.PDK1 and pCMV5.PDK1-antisense were kindly provided by Drs. P. Cohen and D. R. Alessi (MRC Phosphorylation Unit, University of Dundee, UK).
as §3, §1
as §2, with “Industries). The following filter-settings were used: for GFPs65T: excitation at 485 nm, a 505 nm dicroic mirror and an emission band-pass filter of 500-530 nm; for DsRed: excitation at 558 nm, a 565 nm dicroic mirror and a 580 nm long-pass filter for emission […]” for “Industries).”

[2] = 2.6 nM IGF-I, insulin-producing cells
[3] = co-transfected HIT cells, 5 mU insulin/ml (FIG. 9B)
[4] = co-transfected HIT cells, 5 mU insulin/ml (FIG. 9A)

CO[C@H]1C[C@@H]2CC[C@@H](C)[C@@](O)(O2)C(=O)C(=O)N2CCCC[C@H]2C(=O)O[C@H]([C@H](C)C[C@@H]2CC[C@@H](O)[C@H](OC)C2)CC(=O)[C@H](C)/C=C(\C)[C@@H](O)[C@@H](OC)C(=O)[C@H](C)C[C@H](C)/C=C/C=C/C=C/1C [rapamycin]
effect of inhibitor on insulin-stimulated βGK transcription / promoter activity (rat βGK promoter): not inhibited | effect of inhibitor on insulin-stimulated βGK promoter activity (GFP) in the same co-transfected cell (rat βGK promoter): no effect

CN(C)CCCn1cc(C2=C(c3c[nH]c4ccccc34)C(=O)NC2=O)c2ccccc21 [bisindolylmalemide I]
effect of inhibitor on insulin-stimulated βGK transcription / promoter activity (rat βGK promoter): not sensitive

[Cl-].[K+] [KCI, KCl]
βGK mRNA steady state levels upon secretagogue stimulation (βGK mRNA): increase | βGK promoter-driven GFP expression upon secretagogue stimulation (rat βGK promoter): elevation

COc1ccc(Cl)cc1C(=O)NCCc1ccc(S(=O)(=O)NC(=O)NC2CCCCC2)cc1 [glibenclamide]
βGK mRNA steady state levels upon secretagogue stimulation (βGK mRNA): increase | βGK promoter-driven GFP expression upon secretagogue stimulation (rat βGK promoter): elevation

IGF-I
βGK promoter-driven reporter gene expression upon IGF-I stimulation (rat βGK promoter; [2]): did not activate | insulin promoter-driven reporter gene expression upon IGF-I stimulation [1, 2]: did not activate

COC[C@H]1OC(=O)c2coc3c2[C@@]1(C)C1=C(C3=O)[C@@H]2CCC(=O)[C@@]2(C)C[C@H]1OC(C)=O [wortmannin]
concentration necessary to block insulin-stimulated βGK promoter activity (rat βGK promoter; [3]): 150 nM | concentration sufficient to inhibit insulin-stimulated insulin promoter activity [1, 3]: 50 nM

O=c1cc(N2CCOCC2)oc2c(-c3ccccc3)cccc12 [LY294002]
effect of inhibitor on insulin-stimulated βGK transcription / promoter activity (rat βGK promoter): not inhibited | effect of inhibitor on insulin-stimulated βGK promoter activity (GFP) in the same co-transfected cell (rat βGK promoter): no effect | concentration necessary to completely abolish insulin-stimulated βGK promoter activity (rat βGK promoter; [4]): 100 µM | concentration that blocked insulin-stimulated insulin promoter activity [1, 4]: 25 µM

COc1cccc(-c2cc(=O)c3ccccc3o2)c1N [PD98059]
effect of inhibitor on insulin-stimulated βGK transcription / promoter activity (rat βGK promoter): not sensitive
